Test results as given in patent US11339193B2, “CDP protein secretion inhibitors” (KEZAR LIFE SCIENCES, priority 2018, dated 2022).
Read-outs that look alike come from different tables or passages of the source. Numbered stars: 1 amine (or outer) side, 2 acyl side, 3 side chain; on linkers, the order of the positions; unused ones are H or OH. Square brackets hold non-standard residues; d marks the D form. Peptide text beside a SMILES is read from it. NMeAla(5-Cl-benzothien-3-yl) = CN[C@@H](Cc1csc2ccc(Cl)cc12)C(=O)O; X19 = CN([C@@H](Cc1cn(Cc2ccc(Cl)cc2)c2ccccc12)C(=O)[*:2])[*:1]; Ala(1-cyclohexenyl) = N[C@@H](CC1=CCCCC1)C(=O)O; Butanoyl(2R-oxy,4-CN) = N#CCC[C@@H](O)C(=O)O; Abu(4,4,4-F3) = N[C@@H](CC(F)(F)F)C(=O)O; X12 = O=C([C@H](CC1=CCCC1)N[*:1])[*:2]; NMeL = CN[C@@H](CC(C)C)C(=O)O; NMeA = CN[C@@H](C)C(=O)O

Columns and labels:
Assay type in all cases: cell-based
[1] = system: TNFα-FL/Gaussia Luciferase; assay: Dox induced TNFα-FL-Gluc assay; settings: read-out: TNFa FL Gluc IC50
Text: Dox Induced TNFα-FL-Gluc Assay
(§1) Flp-In 293 T-REx™ cells were transfected with pcDNA™5/FRT/TO plasmid inserted with cDNA encoding Gaussia Luciferase fused to the 3′ end of cDNA encoding full length TNFα (amino acids 1-233). Transfected cells were selected for resistance to the selectable markers Hygromycin and Blasticidin to create a stable cell line that contained the TNFα-FL/Gaussia Luciferase cDNA insert whose expression was regulated under the T-REx™ system. The day before assay, cells were trypsinized and plated in 384-well tissue culture plates. The next day, compound dilutions in DMSO/media containing doxycycline were added to the wells and incubated at 37° C., 5% CO2.

[2] = system: PD1-ss+10aa/Gaussia Luciferase; assay: Dox induced PD1-ss-Gluc assay; settings: read-out: PD1ss Gluc IC50
Text: Dox Induced PD1-ss-Gluc Assay
as §1, with “PD1 signal sequence plus 10 amino” for “full length TNFα (amino”, “(N-[…]-C) (SEQ ID NO:3).” for “1-233).”, “PD1-ss+10aa/Gaussia” for “TNFα-FL/Gaussia”

[3] = system: Prl-ss+10aa/Gaussia Luciferase; assay: Prl-ss-Gluc assay (constitutively active or 24 hr Dox inducible); settings: read-out: Prl IC50
Text: Constitutively Active Prl-ss-Gluc Assay
Flp-In 293 T-REx™ cells were transfected with pcDNA™5/FRT plasmid inserted with cDNA encoding Gaussia Luciferase fused to the 3′ end of cDNA encoding Prl signal sequence plus 10 amino acids (N-[…]-C) (SEQ ID NO:4). Transfected cells were selected for resistance to the selectable markers Hygromycin and Blasticidin to create a stable cell line that constitutively expressed the Prlss+10aa/Gaussia Luciferase fusion protein. The day before assay, cells were trypsinized and plated in 384-well tissue culture plates. The next day, culture media was removed from the wells and replaced with fresh media. Compound dilutions in DMSO/media were added to the wells and incubated at 37° C., 5% CO2.
24 hr Dox Inducible Prl-ss-Gluc Assay
as §1, with “Prl signal sequence plus 10 amino” for “full length TNFα (amino”, “(N-[…]-C) (SEQ ID NO:5).” for “1-233).”, “Prl-ss+10aa/Gaussia” for “TNFα-FL/Gaussia”

[4] = system: NCI-H929 multiple myeloma cell line; assay: H929 assay (cell viability, Celltiter-Glo); settings: Homo sapiens, NCI-H929, read-out: H929 EC50
Method: The human multiple myeloma cell line NCI-H929 was cultured in Advanced RPMI 1640 media (Gibco@) supplemented with 6% fetal bovine serum, 2 mM Glutamine, and 1× Penicillin/Streptomycin. On the day of assay, cells were resuspended in RPMI 1640 media supplemented with 10% fetal bovine serum, 2 mM Glutamine, and 1× Penicillin/Streptmycin and plated in 384-well tissue culture plates and treated with compound dilutions in DMSO/media. Plates were incubated at 37° C., 5% CO2 for 48 hours. After 48 hours, Celltiter-Glo@ (Promega) was added to each well and luciferase signal was quantified using Tecan Infinite M1000 Pro for cell viability determination.

HER3ss-Gluc = assay: HER3ss assay; settings: HEK-293T T-rex cells, transient transfection, doxycycline, 24 h; read-out: HER3 ss IC50
Method: The mature domain of secreted luciferase from Gaussia princeps (GLuc) was cloned into pcDNA5/FRT/TO. The signal sequence plus four amino acids of the mature domain from HER3 ([…]) (SEQ ID NO:8) were cloned upstream of GLuc mature domain and used in transient transfection experiment. HEK-293T T-rex cells were cultured in Dulbecco's modified Eagle's medium with 10% FBS at 5% CO2. Cells were plated 1×10e6 cells per well in a 6-well plate and incubated for 6 h. Cells were transiently transfected with HER3ss-Gluc using Lipofectamine 2000 (Invitrogen). After overnight incubation, transfected cells were replated in a clear-bottomed, black 96-well plate at a density of 20,000 cells per well. Six hours after plating, the cells were treated with doxycycline (1 μg/ml) and increasing concentrations of the indicated compounds for 24 h. Secreted luciferase in the conditioned media was quantified by luminescence using the BioLux Gaussia Luciferase Assay Kit (New England Biolabs, Ipswich, Mass., USA) and a SpectraMax M5 plate reader (Molecular Devices).

[5] = system: U266B1 multiple myeloma cell line; assay: U266 assay (cell viability, Celltiter-Glo); settings: Homo sapiens, U-266; I.A.
Method: Cells were plated in 384-well tissue culture plates and treated with compound dilutions in DMSO/media. Plates were incubated at 37° C., 5% CO2 for 48 hours. After 48 hours, Celltiter-Glo@ (Promega) was added to each well and luciferase signal was quantified using Tecan Infinite M1000 Pro for cell viability determination.

[6] = Flp-In 293 T-REx cells, doxycycline, 24 hours

Structure (SMILES)	IC50 [1, 6] [µM]	IC50 [2, 6] [µM]	IC50 ([3]; Flp-In 293 T-REx cells, 24 hours) [µM]	EC50 ([4]; 48 hours, cell viability) [µM]	IC50 (HER3ss-Gluc) [µM]	EC50 [5] [µM]	IC50 ([1]; I.A.) [µM]	IC50 ([3]; I.A.) [µM]	EC50 ([4]; I.A.) [µM]	IC50 ([2]; I.A.) [µM]
CC(C)C[C@@H]1NC(=O)[C@H](Cc2cn(Cc3ccc(Cl)cc3)c3ccccc23)N(C)C(=O)[C@H](CC(F)(F)F)NC(=O)[C@H](CC(C)C)N(C)C(=O)[C@H](CC(F)(F)F)NC(=O)[C@@H](CCC#N)OC(=O)[C@H](C)N(C)C1=O [C-84] (cyclo(L[NMeA][Butanoyl(2R-oxy,4-CN)][Abu(4,4,4-F3)][NMeL][Abu(4,4,4-F3)][X19]))	0.077	0.037	0.802	0.608	0.072	> 25	–	–	–	–
CC(C)C[C@@H]1NC(=O)[C@H](Cc2csc3ccc(Cl)cc23)N(C)C(=O)[C@H](CC2=CCCCC2)NC(=O)[C@H](CC(C)C)N(C)C(=O)[C@H](CC2=CCCC2)NC(=O)[C@@H](CCC#N)OC(=O)[C@H](C)N(C)C1=O [C-85] (cyclo(L[NMeA][Butanoyl(2R-oxy,4-CN)][X12][NMeL][Ala(1-cyclohexenyl)][NMeAla(5-Cl-benzothien-3-yl)]))	–	1.14	–	–	0.007	> 25	> 25	> 25	> 25	–
CC(C)C[C@@H]1NC(=O)[C@H](Cc2csc3ccc(Cl)cc23)N(C)C(=O)[C@H](CC2=CCCC2)NC(=O)[C@H](CC(C)C)N(C)C(=O)[C@H](CC2=CCCCC2)NC(=O)[C@@H](CCC#N)OC(=O)[C@H](C)N(C)C1=O [C-86] (cyclo(L[NMeA][Butanoyl(2R-oxy,4-CN)][Ala(1-cyclohexenyl)][NMeL][X12][NMeAla(5-Cl-benzothien-3-yl)]))	–	0.567	–	–	0.01	> 25	> 25	> 25	> 25	–
CC(C)C[C@@H]1NC(=O)[C@H](Cc2csc3ccc(Cl)cc23)N(C)C(=O)[C@H](CC2=CCCCC2)NC(=O)[C@H](CC(C)C)N(C)C(=O)[C@H](CC2=CCCCC2)NC(=O)[C@@H](CCC#N)OC(=O)[C@H](C)N(C)C1=O [C-87] (cyclo(L[NMeA][Butanoyl(2R-oxy,4-CN)][Ala(1-cyclohexenyl)][NMeL][Ala(1-cyclohexenyl)][NMeAla(5-Cl-benzothien-3-yl)]))	–	–	–	–	0.011	> 25	> 25	> 25	> 25	> 25
CC(C)C[C@@H]1NC(=O)[C@H](CC(C)C)N(C)C(=O)[C@H](CC(F)(F)F)NC(=O)[C@@H](CCC#N)OC(=O)[C@H](C)N(C)C(=O)[C@H](CC2=CCCCC2)NC(=O)[C@H](Cc2csc3ccc(Cl)cc23)N(C)C1=O [C-88] (cyclo(L[NMeAla(5-Cl-benzothien-3-yl)][Ala(1-cyclohexenyl)][NMeA][Butanoyl(2R-oxy,4-CN)][Abu(4,4,4-F3)][NMeL]))	1.38	0.149	–	5.64	0.065	> 25	–	> 25	–	–
CC(C)C[C@@H]1NC(=O)[C@H](CC(C)C)N(C)C(=O)[C@H](CC(F)(F)F)NC(=O)[C@@H](CCC#N)OC(=O)[C@H](C)N(C)C(=O)[C@H](CC2=CCCC2)NC(=O)[C@H](Cc2csc3ccc(Cl)cc23)N(C)C1=O [C-89] (cyclo(L[NMeAla(5-Cl-benzothien-3-yl)][X12][NMeA][Butanoyl(2R-oxy,4-CN)][Abu(4,4,4-F3)][NMeL]))	0.879	0.172	–	3.73	0.033	> 25	–	> 25	–	–
